According to patent US20130012432A1, “Peptides for Treatment of Obesity” (Novo Nordisk A/S, priority 2010, published 2013):
In brackets after ≈: the same amount, converted by molar mass. Positions of bridges follow the written chain, without caps; N, C: chain ends. Non-standard residues stand in square brackets, D forms with d. Residues, ends and D or L forms follow the SMILES beside them. Groups on a side chain read outwards from the residue. *: point of attachment. Palmitoyl(16-(5-tetrazolyl)) = O=C(CCCCCCCCCCCCCCCc1nnn[nH]1)*; Lys(CH2CO2H)2 = N[C@@H](CCCCN(CC(=O)O)CC(=O)O)C(=O)O; C18 diacid = O=C(O)CCCCCCCCCCCCCCCCC(=O)*; C17 diacid = O=C(O)CCCCCCCCCCCCCCCC(=O)*; C16 diacid = O=C(O)CCCCCCCCCCCCCCC(=O)*; Orn = NCCC[C@H](N)C(=O)O; Dab = NCC[C@H](N)C(=O)O; AEEA = NCCOCCOCC(=O)O

Key:
physchem = assay: physchem
Experimental: From a stock solution in vehicle, either H2O or 10 mM phosphate, containing 1 mg (as weighed) compound per ml, 8-11 aliquots are withdrawn and pH-adjusted individually with HCl/NaOH, to cover the whole pH range.

MC1 receptor = MC1 receptor (Homo sapiens, UniProt Q01726); assay: biochemical
MC1 receptor, sequence (Q01726 whole entry): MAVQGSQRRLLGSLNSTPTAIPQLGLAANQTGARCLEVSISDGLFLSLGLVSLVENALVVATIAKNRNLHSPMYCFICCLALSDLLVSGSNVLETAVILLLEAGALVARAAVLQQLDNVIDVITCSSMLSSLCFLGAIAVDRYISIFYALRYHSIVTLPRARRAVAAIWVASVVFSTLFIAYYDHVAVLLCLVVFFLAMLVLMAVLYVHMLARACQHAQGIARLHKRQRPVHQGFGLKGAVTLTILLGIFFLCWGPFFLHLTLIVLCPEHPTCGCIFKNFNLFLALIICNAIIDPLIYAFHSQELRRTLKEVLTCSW
Experimental: Assay (IV)—Melanocortin Receptor 1 (MC1) Binding Assay
The MC1 receptor binding assay was performed on BHK cell membranes stably expressing the MC1 receptor. The assay was performed in a total volume of 250 μl: 25 μl of ^125NDP-α-MSH (22 pM in final concentration), 25 μl of test compound/control and 200 μl of cell membrane (25 μg/ml). Test compounds were dissolved in DMSO. Radioactively labeled ligand, membranes and test compounds were diluted in buffer: 25 mM HEPES, pH 7.4, 0.1 mM CaCl2, 1 mM MgSO4, 1 mM EDTA, 0.1% HSA and 0.005% Tween™ 20. Alternatively, HSA may be substituted with ovalbumin. The samples were incubated at 30° C. for 90 min. in Costar round-bottom microtiter plates. Incubation was terminated by filtration on a Packard harvester filtermate. Rapid filtration through Packard Unifilter-96 GF/B filters pre-treated with polyetylenimine (PerkinElmer 6005277). The filters were washed with ice-cold 0.9% NaCl 8-10 times. The plates were air-dried at app. 55° C. for 30 min, and 50 μl Microscint 0 (Packard, cat. No. 6013616) was added to each well. The plates were counted in a Topcounter (1 min/well).
The data were analysed by non-linear regression analysis of binding curves, using the Windows™ program GraphPad™ Prism (GraphPad Software, USA).

Row | Compound | solubility (physchem; pH 6, Solubility Conc.) [µM] | solubility (physchem; pH 7.2, Solubility Conc.) [µM] | solubility (physchem; pH 7.3, Solubility Conc.) [µM] | Ki (MC1 receptor) [µM] | solubility (physchem; pH 6.1, Solubility Conc.) [µM] | solubility (physchem; pH 6.8, Solubility Conc.) [µM] | solubility (physchem; pH 7.1, Solubility Conc.) [µM] | solubility (physchem; pH 7.7, Solubility Conc.) [µM] | solubility (physchem; pH 7.9, Solubility Conc.) [µM] | solubility (physchem; pH 7.4, Solubility Conc.) [µM] | solubility (physchem; pH 6.3, Solubility Conc.) [µM] | other results
1 | CC(=O)N[C@H]1CCCCNC(=O)C[C@@H](C(=O)N2CCC[C@H]2C(=O)N2CCC[C@H]2C(=O)N[C@@H](CCCNC(=N)N)C(=O)N[C@@H](CC(=O)O)C(=O)N[C@@H](CCCCN(CC(=O)O)CC(=O)O)C(=O)N[C@@H](CCCCNC(=O)COCCOCCNC(=O)CCCCCCCCCCCCCCCc2nnn[nH]2)C(N)=O)NC(=O)[C@H](Cc2c[nH]c3ccccc23)NC(=O)[C@H](CCCNC(=N)N)NC(=O)[C@@H](Cc2ccccc2)NC(=O)[C@H](Cc2c[nH]cn2)NC1=O [Example 11, Ac-c[Lys-His-D-Phe-Arg-Trp-Asp]-Pro-Pro-Arg-Asp-Lys(biscarboxymethyl)-Lys[(2-{2-[16-(tetrazol-5-yl)hexadecanoylamino]ethoxy}ethoxy)acetyl]-NH2] (Ac-KH[dF]RWDPPRD[Lys(CH2CO2H)2]K([AEEA-Palmitoyl(16-(5-tetrazolyl))])-NH2; lactam 1-6) | 25 (≈ 55 µg/mL) | 364 (≈ 801 µg/mL) | 479 (≈ 1050 µg/mL) | > 10 |  |  |  |  |  |  |  | solubility (physchem; pH 4.8, Solubility Conc.): 51 µM (≈ 112 µg/mL); solubility (physchem; pH 5.3, Solubility Conc.): 29 µM (≈ 63.8 µg/mL); solubility (physchem; pH 6.4, Solubility Conc.): 36 µM (≈ 79.2 µg/mL); solubility (physchem; pH 7, Solubility Conc.): 147 µM (≈ 323 µg/mL); solubility (physchem; pH 7.6, Solubility Conc.): 472 µM (≈ 1040 µg/mL); solubility (physchem; pH 7.8, Solubility Conc.): 479 µM (≈ 1050 µg/mL)
2 | CC(=O)N[C@H]1CCC(=O)NCCC[C@@H](C(=O)N2CCC[C@H]2C(=O)N2CCC[C@H]2C(=O)N[C@@H](CC(=O)O)C(=O)N[C@@H](CCCCN(CC(=O)O)CC(=O)O)C(=O)N[C@@H](CCCCNC(=O)COCCOCCNC(=O)CCCCCCCCCCCCCCC(=O)O)C(N)=O)NC(=O)[C@H](Cc2c[nH]c3ccccc23)NC(=O)[C@H](CCCNC(=N)N)NC(=O)[C@@H](Cc2ccccc2)NC(=O)[C@H](Cc2c[nH]cn2)NC1=O [Example 13, Ac-c[Glu-His-D-Phe-Arg-Trp-Orn]-Pro-Pro-Asp-Lys(biscarboxymethyl)-Lys({2-[2-(15-carboxypentadecanoylamino)ethoxy]ethoxy}acetyl)-NH2] (Ac-EH[dF]RW[Orn]PPD[Lys(CH2CO2H)2]K([AEEA-C16 diacid])-NH2; lactam 1-6) |  |  | 467 (≈ 937 µg/mL) | > 10 | 473 (≈ 949 µg/mL) | 459 (≈ 921 µg/mL) | 506 (≈ 1020 µg/mL) | 472 (≈ 947 µg/mL) | 493 (≈ 989 µg/mL) |  |  | solubility (physchem; pH 5.5, Solubility Conc.): 348 µM (≈ 698 µg/mL); solubility (physchem; pH 5.7, Solubility Conc.): 494 µM (≈ 991 µg/mL); solubility (physchem; pH 6.5, Solubility Conc.): 469 µM (≈ 941 µg/mL)
3 | CC(=O)N[C@H]1CCNC(=O)C[C@@H](C(=O)N2CCC[C@H]2C(=O)N2CCC[C@H]2C(=O)N[C@@H](CCCNC(=N)N)C(=O)N[C@@H](CCC(=O)O)C(=O)N[C@@H](CCCCN(CC(=O)O)CC(=O)O)C(=O)N[C@@H](CCCCNC(=O)COCCOCCNC(=O)CCCCCCCCCCCCCCCc2nnn[nH]2)C(N)=O)NC(=O)[C@H](Cc2c[nH]c3ccccc23)NC(=O)[C@H](CCCNC(=N)N)NC(=O)[C@@H](Cc2ccccc2)NC(=O)[C@H](Cc2c[nH]cn2)NC1=O [Example 15, Ac-c[Dab-His-D-Phe-Arg-Trp-Asp]-Pro-Pro-Arg-Glu-Lys(biscarboxymethyl)-Lys[(2-{2-[16-(tetrazol-5-yl)hexadecanoylamino]ethoxy}ethoxy)acetyl]-NH2] (Ac-[Dab]H[dF]RWDPPRE[Lys(CH2CO2H)2]K([AEEA-Palmitoyl(16-(5-tetrazolyl))])-NH2; lactam 1-6) |  |  | 395 (≈ 864 µg/mL) | > 10 | 26 (≈ 56.9 µg/mL) | 60 (≈ 131 µg/mL) | 147 (≈ 321 µg/mL) | 461 (≈ 1010 µg/mL) |  | 445 (≈ 973 µg/mL) |  | solubility (physchem; pH 5, Solubility Conc.): 49 µM (≈ 107 µg/mL); solubility (physchem; pH 7.8, Solubility Conc.): 441 µM (≈ 964 µg/mL); solubility (physchem; pH 8, Solubility Conc.): 417 µM (≈ 912 µg/mL)
4 | CC(=O)N[C@H]1CCCNC(=O)CC[C@@H](C(=O)N2CCC[C@H]2C(=O)N[C@@H](CO)C(=O)N[C@@H](CCCCN)C(=O)N[C@@H](CCC(=O)O)C(=O)N[C@@H](CCC(=O)O)C(=O)N[C@@H](CO)C(=O)N[C@@H](CO)C(=O)N[C@@H](CCC(=O)O)C(=O)N[C@@H](CCCCNC(=O)COCCOCCNC(=O)CCCCCCCCCCCCCCCC(=O)O)C(N)=O)NC(=O)[C@H](Cc2c[nH]c3ccccc23)NC(=O)[C@H](CCCNC(=N)N)NC(=O)[C@@H](Cc2ccccc2)NC(=O)[C@H](Cc2c[nH]cn2)NC1=O [Example 20] (Ac-[Orn]H[dF]RWEPSKEESSEK([AEEA-C17 diacid])-NH2; lactam 1-6) | 192 (≈ 449 µg/mL) |  | 433 (≈ 1010 µg/mL) | > 10 |  |  |  |  | 398 (≈ 932 µg/mL) |  | 399 (≈ 934 µg/mL) | solubility (physchem; pH 6.4, Solubility Conc.): 410 µM (≈ 960 µg/mL); solubility (physchem; pH 6.7, Solubility Conc.): 416 µM (≈ 974 µg/mL); solubility (physchem; pH 7, Solubility Conc.): 420 µM (≈ 983 µg/mL); solubility (physchem; pH 7.6, Solubility Conc.): 429 µM (≈ 1000 µg/mL); solubility (physchem; pH 8.2, Solubility Conc.): 439 µM (≈ 1030 µg/mL)
5 | CC(=O)N[C@H]1CCCCNC(=O)CC[C@@H](C(=O)N2CCC[C@H]2C(=O)N2CCC[C@H]2C(=O)N[C@@H](CCCNC(=N)N)C(=O)N[C@@H](CC(=O)O)C(=O)N[C@@H](CCCCN(CC(=O)O)CC(=O)O)C(=O)N[C@@H](CCCCNC(=O)COCCOCCNC(=O)CCCCCCCCCCCCCCCc2nnn[nH]2)C(N)=O)NC(=O)[C@H](Cc2c[nH]c3ccccc23)NC(=O)[C@H](CCCNC(=N)N)NC(=O)[C@@H](Cc2ccccc2)NC(=O)[C@H](Cc2c[nH]cn2)NC1=O [Example 21, Ac-c[Lys-His-D-Phe-Arg-Trp-Glu]-Pro-Pro-Arg-Asp-Lys(biscarboxymethyl)-Lys[(2-{2-[16-(tetrazol-5-yl)hexadecanoylamino]ethoxy}ethoxy)acetyl]-NH2] (Ac-KH[dF]RWEPPRD[Lys(CH2CO2H)2]K([AEEA-Palmitoyl(16-(5-tetrazolyl))])-NH2; lactam 1-6) | 31 (≈ 68.7 µg/mL) | 90 (≈ 199 µg/mL) |  | > 10 |  |  |  | 360 (≈ 797 µg/mL) | 366 (≈ 811 µg/mL) | 175 (≈ 388 µg/mL) | 36 (≈ 79.7 µg/mL) | solubility (physchem; pH 5.3, Solubility Conc.): 38 µM (≈ 84.2 µg/mL); solubility (physchem; pH 6.6, Solubility Conc.): 47 µM (≈ 104 µg/mL); solubility (physchem; pH 7.5, Solubility Conc.): 276 µM (≈ 611 µg/mL)
6 | CC(=O)N[C@H]1CCCNC(=O)CC[C@@H](C(=O)N2CCC[C@H]2C(=O)N2CCC[C@H]2C(=O)N[C@@H](Cc2c[nH]cn2)C(=O)N[C@@H](CCC(=O)O)C(=O)N[C@@H](CCCCN(CC(=O)O)CC(=O)O)C(=O)N[C@@H](CCCCNC(=O)COCCOCCNC(=O)CCCCCCCCCCCCCCCC(=O)O)C(N)=O)NC(=O)[C@H](Cc2c[nH]c3ccccc23)NC(=O)[C@H](CCCNC(=N)N)NC(=O)[C@@H](Cc2ccccc2)NC(=O)[C@H](Cc2c[nH]cn2)NC1=O [Example 22, Ac-c[Orn-His-D-Phe-Arg-Trp-Glu]-Pro-Pro-His-Glu-Lys(biscarboxymethyl)-Lys({2-[2-(16-carboxyhexadecanoylamino)ethoxy]ethoxy}acetyl)-NH2] (Ac-[Orn]H[dF]RWEPPHE[Lys(CH2CO2H)2]K([AEEA-C17 diacid])-NH2; lactam 1-6) |  | 447 (≈ 971 µg/mL) |  | > 10 | 134 (≈ 291 µg/mL) | 444 (≈ 964 µg/mL) |  |  |  | 438 (≈ 951 µg/mL) | 173 (≈ 376 µg/mL) | solubility (physchem; pH 6.7, Solubility Conc.): 284 µM (≈ 617 µg/mL); solubility (physchem; pH 6.9, Solubility Conc.): 443 µM (≈ 962 µg/mL); solubility (physchem; pH 8, Solubility Conc.): 468 µM (≈ 1020 µg/mL)
7 | CC(=O)N[C@H]1CCC(=O)NCCC[C@@H](C(=O)N2CCC[C@H]2C(=O)N2CCC[C@H]2C(=O)N[C@@H](CC(=O)O)C(=O)N[C@@H](CCCCN(CC(=O)O)CC(=O)O)C(=O)N[C@@H](CCCCNC(=O)COCCOCCNC(=O)CCCCCCCCCCCCCCCCC(=O)O)C(N)=O)NC(=O)[C@H](Cc2c[nH]c3ccccc23)NC(=O)[C@H](CCCNC(=N)N)NC(=O)[C@@H](Cc2ccccc2)NC(=O)[C@H](Cc2c[nH]cn2)NC1=O [Example 26, Ac-c[Glu-His-D-Phe-Arg-Trp-Orn]-Pro-Pro-Asp-Lys(biscarboxymethyl)-Lys({2-[2-(17-carboxyheptadecanoylamino)ethoxy]ethoxy}acetyl)-NH2] (Ac-EH[dF]RW[Orn]PPD[Lys(CH2CO2H)2]K([AEEA-C18 diacid])-NH2; lactam 1-6) |  |  |  | > 10 | 474 (≈ 964 µg/mL) | 461 (≈ 938 µg/mL) | 476 (≈ 968 µg/mL) | 474 (≈ 964 µg/mL) | 478 (≈ 972 µg/mL) | 482 (≈ 981 µg/mL) |  | solubility (physchem; pH 5.5, Solubility Conc.): 49 µM (≈ 99.7 µg/mL); solubility (physchem; pH 5.8, Solubility Conc.): 325 µM (≈ 661 µg/mL); solubility (physchem; pH 6.5, Solubility Conc.): 478 µM (≈ 972 µg/mL)
